Read-outs that look alike come from different tables or passages of the source.
Experiments:
[1] = Antianginal effect in rats after intravenous administration, method of Nieschulz, Popendiker and Hofmann; assay type: in vivo; conditions: Rattus norvegicus
[2] = Acute intravenous toxicity (LD50) and therapeutic index, Table II; conditions: in vivo; for selectivity ratio: from LD50 and ED50, iv.; for LD50: iv.

## CC(Cc1ccccc1)NCCC(c1ccccc1)c1ccccc1 (stereo not drawn) [Prenylamine, N-3,3-di-phenylpropyl-1-methylphenyl-ethylamine, reference compound]
[1]
  ED50: 6.5 mg/kg
[2]
  selectivity ratio: 1.77
  LD50: 11.5 mg/kg

## CN(C)CCO/N=C1\CCCCCC1Cc1ccccc1 (stereo not drawn) [compound D, 2-benzyl-1-[(E)-(2-dimethylamino-ethoxyimino)]-cycloheptane]
[1]; read-out: ED50
  ED50: 0.52 mg/kg
[2]
  selectivity ratio: 76.9
  LD50: 40 mg/kg

## CC(C)N(CCCO/N=C1\CCCC\C1=C/c1ccc(Cl)cc1)C(C)C [compound F, 2-[(E)-(4-chlorophenyl)-methylene]-1-[(E)-(3-diisopropylamino)-propyloxyimino]-cyclohexane]
[1]; read-out: ED50
  ED50: 0.35 mg/kg
[2]
  selectivity ratio: 120
  LD50: 42 mg/kg

## CC(C)N(CCCO/N=C1\CCCC\C1=C/c1ccccc1)C(C)C [compound G, 2-[(E)-phenylmethylene]-1-[(E)-(3-diisopropylaminopropyloxyimino)]-cyclohexane]
[1]; read-out: ED50
  ED50: 0.38 mg/kg
[2]
  selectivity ratio: 32.9
  LD50: 12.5 mg/kg

Source: patent publication US4621101A, “Pharmaceutical compositions with antianginal activity” (Egis Gyogyszergyar, priority 1984, dated 1986)
